Experimental data as given in PMC6895048, “4,5-Disubstituted 1,2,3-triazoles: Effective Inhibition of Indoleamine 2,3-Dioxygenase 1 Enzyme Regulates T cell Activity and Mitigates Tumor Growth” (Scientific Reports, 2019).

Tests used:
[1] = biological target: T1, purified human TDO enzyme (Homo sapiens, UniProt P48775); test: TDO inhibition assay by the spectrometric method; assay type: biochemical; settings: for inhibitory efficacies against TDO enzyme: both spectrophotometric and kynurenine assay
T1 construct: 6xHis (N); made in house; host or cells: Escherichia coli BL21 (DE3) (pET 28a vector)
Experimental: Both IDO1 and TDO inhibition assays were performed according to the reported procedures[26]–[30],[50],[51]. The solubility of the compounds in water was either moderate or poor. […] In the assay system, the minimum and maximum amount of DMSO was 0.02% and 2%, respectively. The standard reaction mixture (500 μL) containing KPB (100 mM, pH 6.5 for IDO1 enzyme and 50 mM, pH 8.0 for TDO enzyme), sodium ascorbate (20 mM), methylene blue (10 µM), catalase (240 nM, from bovine liver), L-Trp (150 µM), purified enzyme (40 nM for IDO1 and 25 nM for TDO), DMSO (0.05%, v/v), Triton-X 100 (0.01%, v/v) and inhibitors was incubated at 37 °C for 1 hour. The concentration of the inhibitors was varied from 100 µM to 32 nM by serial dilution technique. Then, the reaction was quenched with 100 µL of 30% (w/v) trichloroacetic acid and was incubated for further 15 minutes at 65 °C. After that, 2% (w/v) pDMAB was used to quantify the amount of kynurenine formation. The absorbance of the reaction mixture was recorded by UV-Vis spectrophotometer at 480 nm. The Km = 59.76 µM and Kcat = 6.18 sec^−1.

[2] = biological target: T2, IDO1 (Homo sapiens, UniProt P14902); test: Kynurenine assay by HPLC analysis, IDO1; assay type: biochemical; design: made in house; host or cells: Escherichia coli M15 (pQE30 vector with pREP4 plasmid)
Experimental: HPLC based IDO1, and TDO inhibition assays were performed according to the earlier reported procedure[19],[27]–[30]. The reaction mixture (250 µL) contained KPB (100 mM, pH 6.5 for IDO1 and 50 mM, pH 8.0 for TDO), sodium ascorbate (20 mM), methylene blue (10 µM), catalase (240 nM, from bovine liver, Sigma), L-Trp (150 µM), purified enzyme (40 nM for IDO1 and 25 nM for TDO), DMSO (0.05%, v/v), Triton-X 100 (0.01%, v/v) and inhibitors. The concentration of the compound was varied from 100 µM to 32 nM by serial dilution. The mixture was incubated at 37 °C for 1 hour in the absence and presence of the synthesized compounds. The reaction was then quenched using 50 µL of 30% (w/v) trichloroacetic acid and incubated at 65 °C for additional 15 minutes to allow complete hydrolysis of N-formylkynurenine to kynurenine. After that, the mixture was centrifuged at 10,000 rpm for 10 minutes, and 100 µL of clear solution was transferred to another tube for HPLC analysis. Then, 20 µL of the reaction mixture was then injected through Ascentis® express C18, 2.7 µm HPLC column with a flow rate of 0.5 mL/minute of the mobile phase containing 50% sodium citrate buffer (40 mM, pH 2.25) and 50% methanol (v/v) with 400 µM SDS. The area under the curve at 365 nm chromatogram corresponding to the kynurenine formation was recorded, and % of inhibition was calculated using standard curve prepared with pure kynurenine (from Sigma) under similar experimental conditions.

[3] = biological target: T2, IDO1; test: Cellular IDO1 activity assay in IFN-γ induced MDA-MB-231 cells; assay type: cell-based; design: induce the expression of the native IDO1 enzyme from its mRNA in the MDA-MB-231 cells; endogenous in cells; host or cells: MDA-MB-231 cells induced with human IFN-γ (50 ng/mL); settings: IDO1 expression induced by human IFN-γ (50 ng/mL); mean of three
Experimental: The cellular enzyme activity assay was performed according to the reported procedure with minor modifications[19],[27]–[30],[33],[54]. Briefly, MDA-MB-231 breast cancer cells were selected for this assay because of the presence of IDO1 mRNA in this cell line. First, cells were grown in DMEM/F12 complete media overnight. Then different concentration of human interferon-gamma (IFN-γ) (from 5–1000 ng/mL) was added to it and incubated for 48 hours. This treatment is reported to allow over-expression of IDO1 enzyme in MDA-MB-231 cells. […] Sterile cell-culture grade PBS was used to wash the cells by centrifugation technique. Then, the pellet was lysed in 10 mM HEPES buffer by passing through a sterile syringe. The lysate was used for standard IDO1 assay as mentioned earlier. The relative amount of N-formylkynurenine generated in the presence of the different concentration of IFN-γ was used to optimize the required concentration of IFN-γ for the IDO1 inhibition assay. […] Cells stimulated with IFN-γ alone were used as negative control, while cells stimulated with L-Trp without compound served as positive control. The cells were washed with sterile cell culture grade PBS and lysed in 10 mM HEPES buffer by sterile syringe. The lysate was used for standard IDO1 assay, as mentioned earlier, and the extent of IDO1 enzyme inhibition was determined for the selected compounds.

[4] = HPLC based IDO1 inhibition assay

T1 sequence (P48775 whole entry): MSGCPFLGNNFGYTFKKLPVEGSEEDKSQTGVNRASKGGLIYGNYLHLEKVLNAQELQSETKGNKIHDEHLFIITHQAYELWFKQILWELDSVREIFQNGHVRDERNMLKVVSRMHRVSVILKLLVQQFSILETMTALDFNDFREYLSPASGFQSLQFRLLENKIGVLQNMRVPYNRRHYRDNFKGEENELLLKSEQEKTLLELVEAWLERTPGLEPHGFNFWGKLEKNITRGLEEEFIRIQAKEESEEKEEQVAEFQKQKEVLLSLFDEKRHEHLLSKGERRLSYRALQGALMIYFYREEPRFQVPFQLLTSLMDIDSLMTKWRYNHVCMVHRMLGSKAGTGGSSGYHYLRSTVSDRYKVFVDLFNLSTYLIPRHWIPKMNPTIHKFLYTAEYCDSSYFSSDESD
T2 sequence (P14902 whole entry): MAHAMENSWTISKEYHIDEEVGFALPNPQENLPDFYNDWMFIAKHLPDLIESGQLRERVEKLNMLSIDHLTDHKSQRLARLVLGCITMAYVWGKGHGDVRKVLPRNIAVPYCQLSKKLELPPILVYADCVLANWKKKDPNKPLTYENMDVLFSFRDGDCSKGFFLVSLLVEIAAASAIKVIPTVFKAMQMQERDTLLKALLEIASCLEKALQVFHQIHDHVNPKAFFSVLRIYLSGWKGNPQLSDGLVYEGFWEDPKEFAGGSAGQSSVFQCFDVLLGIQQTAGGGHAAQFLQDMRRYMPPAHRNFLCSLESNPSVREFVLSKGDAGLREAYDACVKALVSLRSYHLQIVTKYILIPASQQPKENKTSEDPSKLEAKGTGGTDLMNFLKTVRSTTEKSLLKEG

For `CCOC(=O)c1n[nH]nc1-c1ccc(F)c(F)c1` [Compound 2i], the “inhibitory efficacies against TDO enzyme” value [1] was “moderate to poor”, the “% of Enzyme inhibition (TDO)” value ([1]; spectrophotometric, 32 nM) was 2% and the “% of Enzyme inhibition (TDO)” value ([1]; spectrophotometric, 160 nM) was 9%. For the same compound, the “% of Enzyme inhibition (TDO)” value ([1]; spectrophotometric, 800 nM) was 12%, the “% of Enzyme inhibition (TDO)” value ([1]; spectrophotometric, 4 µM) was 15% and the “% of Enzyme inhibition (TDO)” value ([1]; spectrophotometric, 20 µM) was 23%. For the same compound, the “% of Enzyme inhibition (TDO)” value ([1]; spectrophotometric, 100 µM) was 28%, the IC50 [2, 4] was 396 ± 10 nM and the “% Of inhibition for IDO1 enzyme” value ([2]; HPLC, 32 nM) was 21%. For the same compound, the “% Of inhibition for IDO1 enzyme” value ([2]; HPLC, 160 nM) was 29%, the “% Of inhibition for IDO1 enzyme” value ([2]; HPLC, 800 nM) was 59% and the “% Of inhibition for IDO1 enzyme” value ([2]; HPLC, 4 µM) was 60%. For the same compound, the “% Of inhibition for IDO1 enzyme” value ([2]; HPLC, 20 µM) was 78%, the “% Of inhibition for IDO1 enzyme” value ([2]; HPLC, 100 µM) was 80% and the EC50 [3] was 162 ± 15 nM.

In the case of `NS(=O)(=O)NCCNC(=O)c1n[nH]nc1-c1ccc(F)c(F)c1` [Compound 4k], the “inhibitory efficacies against TDO enzyme” value [1] is reported as “moderate to poor”, the inhibition at 0.032 µM ([1]; spectrophotometric, 32 nM) is reported as 3% and the inhibition at 0.16 µM ([1]; spectrophotometric, 160 nM) is reported as 6%. It also gave an inhibition at 0.8 µM ([1]; spectrophotometric, 800 nM) of 16%, an inhibition at 4 µM ([1]; spectrophotometric, 4 µM) of 32% and an inhibition at 20 µM ([1]; spectrophotometric, 20 µM) of 45%. The inhibition at 100 µM ([1]; spectrophotometric, 100 µM) was 50%, the IC50 [2, 4] was 59 ± 6 nM and the inhibition at 0.032 µM ([2]; HPLC, 32 nM) was 14%. It also gave an inhibition at 0.16 µM ([2]; HPLC, 160 nM) of 45%, an inhibition at 0.8 µM ([2]; HPLC, 800 nM) of 69% and an inhibition at 4 µM ([2]; HPLC, 4 µM) of 77%. The inhibition at 20 µM ([2]; HPLC, 20 µM) was 86%, the inhibition at 100 µM ([2]; HPLC, 100 µM) was 84% and the IC50 ([2]; kynurenine assay) was 60 to 115 nM. The EC50 [3] was 77 ± 5 nM.

`NC(=O)c1n[nH]nc1-c1ccc(F)c(F)c1` [Compound 3i] was tested, and the “inhibitory efficacies against TDO enzyme” value [1] was “moderate to poor”, the “% of Enzyme inhibition (TDO)” value ([1]; spectrophotometric, 32 nM) was 5% and the “% of Enzyme inhibition (TDO)” value ([1]; spectrophotometric, 160 nM) was 11%. The “% of Enzyme inhibition (TDO)” value ([1]; spectrophotometric, 800 nM) was 14%, the “% of Enzyme inhibition (TDO)” value ([1]; spectrophotometric, 4 µM) was 26% and the “% of Enzyme inhibition (TDO)” value ([1]; spectrophotometric, 20 µM) was 33%. The “% of Enzyme inhibition (TDO)” value ([1]; spectrophotometric, 100 µM) was 49%, the IC50 [2, 4] was 119 ± 13 nM and the “% Of inhibition for IDO1 enzyme” value ([2]; HPLC, 32 nM) was 27%. For the same compound, the “% Of inhibition for IDO1 enzyme” value ([2]; HPLC, 160 nM) was 48%, the “% Of inhibition for IDO1 enzyme” value ([2]; HPLC, 800 nM) was 69% and the “% Of inhibition for IDO1 enzyme” value ([2]; HPLC, 4 µM) was 76%. The “% Of inhibition for IDO1 enzyme” value ([2]; HPLC, 20 µM) was 84%, the “% Of inhibition for IDO1 enzyme” value ([2]; HPLC, 100 µM) was 83% and the EC50 [3] was 74 ± 17 nM.

`O=C(N/C(Cc1ccc(O)cc1)=N\O)c1n[nH]nc1-c1ccc(F)c(F)c1` [Compound 4i] was tested, and the “inhibitory efficacies against TDO enzyme” value [1] was “moderate to poor”, the “% of Enzyme inhibition (TDO)” value ([1]; spectrophotometric, 32 nM) was 4% and the “% of Enzyme inhibition (TDO)” value ([1]; spectrophotometric, 160 nM) was 7%. For the same compound, the “% of Enzyme inhibition (TDO)” value ([1]; spectrophotometric, 800 nM) was 14%, the “% of Enzyme inhibition (TDO)” value ([1]; spectrophotometric, 4 µM) was 24% and the “% of Enzyme inhibition (TDO)” value ([1]; spectrophotometric, 20 µM) was 42%. The “% of Enzyme inhibition (TDO)” value ([1]; spectrophotometric, 100 µM) was 55%, the IC50 [2, 4] was 114 ± 10 nM and the “% Of inhibition for IDO1 enzyme” value ([2]; HPLC, 32 nM) was 13%. The “% Of inhibition for IDO1 enzyme” value ([2]; HPLC, 160 nM) was 34%, the “% Of inhibition for IDO1 enzyme” value ([2]; HPLC, 800 nM) was 52% and the “% Of inhibition for IDO1 enzyme” value ([2]; HPLC, 4 µM) was 68%. For the same compound, the “% Of inhibition for IDO1 enzyme” value ([2]; HPLC, 20 µM) was 79%, the “% Of inhibition for IDO1 enzyme” value ([2]; HPLC, 100 µM) was 84% and the IC50 ([2]; kynurenine assay) was 60 to 115 nM. For the same compound, the EC50 [3] was 88 ± 10 nM.
